Data as given in patent US20220000117A1, “METHOD FOR CONTROLLING DISEASES IN SMALL GRAIN CEREALS, SEED OF SMALL GRAIN CEREALS, AND METHOD FOR SUPPRESSING LODGING DAMAGE IN SMALL GRAIN CEREALS” (KUMIAI CHEMICAL INDUSTRY CO., LTD., priority 2019, published 2022).

Assays:
powdery mildew = assay: Test Example 9: control test of wheat powdery mildew, cup in greenhouse, inoculated, Norin No. 61 (Tables 10 to 14); type: in vivo, Blumeria graminis; parameters: key to Degree of Disease Occurrence: Σ(index×leaves)/(4×leaves investigated)×100; 0 = no disease, 100 = max
Description: (§1) Degree of Disease Occurrence=Σ(Index×Number of Leaves of Index)/(4×Number of Investigated Leaves)×100 (1)
Seed of wheat (variety: Norin No. 61) was used, and 100 ml of suspension waters each containing the compound shown in Table 10 at an amount shown in […] (synthesis was performed in accordance with a known method, a solution dissolved in DMSO or formulated 10% wettable powder was used) were prepared. The seed having a mass of 1 kg of wheat was mixed into the suspension water with a chemical treated amount shown in Table 10, and air-dried, and then, 5 seeds were sown in a plastic cup having a diameter of 6 cm containing river sand and managed in a greenhouse. In Comparative Examples, 20 ml of the suspension water of an active ingredient, which had been adjusted to have a concentration shown in Table 10, was sprayed in a frame of 45 cm×45 cm in which a pot of wheat seedlings was placed (corresponding to 1000 L/ha) 14 days after seeding. On day 14 after seeding, conidiospores of powdery mildew were sifted over leaves of wheat seedlings and inoculated onto the leaves (after the sprayed liquid was dried in the case of Comparative Examples), a lesion area ratio of powdery mildew in a first leaf was investigated 21 days after seeding according to the criteria in Table 1, and the degree of disease occurrence was calculated by the above calculation formula (1).

septoria leaf blotch = assay: Test Example 10: control test of septoria leaf blotch of wheat, cup in greenhouse, inoculated, variety ARKEOS (Tables 15 to 19); type: in vivo, Septoria tritici
Description: as §1
Seed of wheat (variety: ARKEOS) was used, and 100 ml of suspension waters each containing the compound shown in Table 15 at an amount shown in Table 15 (synthesis was performed in accordance with a known method, a liquid dissolved in a small amount of DMSO or formulated 10% wettable powder was used) were prepared. Seed having a mass of 1 kg was mixed into the suspension water with a rate shown in Examples of Table 15, and air-dried, and then, 5 seeds were sown in a plastic cup having a diameter of 6 cm containing mixed soil of river sand and horticultural soil and managed in a greenhouse. In Comparative Examples, 20 ml of suspension water of an active ingredient, which had been adjusted to have a concentration shown in Table 15 to 19, was sprayed in a frame of 45 cm×45 cm in which a pot of wheat seedlings was placed (corresponding to 1000 L/ha) 14 days after seeding. On day 14 after seeding, a spore suspension in which conidiospores of septoria leaf blotch are suspended was sprayed and inoculated on leaves of wheat seedlings (after the sprayed liquid was dried in the case of Comparative Examples), a lesion area ratio of septoria leaf blotch in a second leaf was investigated approximately 35 days after seeding according to the criteria in Table 1, and the degree of disease occurrence was calculated by the above calculation formula (1).

[1] = Table 12 run (different day), Foliage Treatment, spray 5 ppm (5 g/ha)
[2] = Table 12 run (different day), Foliage Treatment, spray 10 ppm (10 g/ha)
[3] = Table 12 run (different day), Foliage Treatment, spray 50 ppm (50 g/ha)
[4] = Table 12 run (different day), Seed Treatment 0.05 g/Seed 1 kg (5 g/ha)
[5] = Table 12 run (different day), Seed Treatment 0.1 g/Seed 1 kg (10 g/ha)
[6] = Table 12 run (different day), Seed Treatment 0.5 g/Seed 1 kg (50 g/ha)
[7] = Table 19, Foliage Treatment, spray 50 ppm suspension water (corresponding to 50 g/ha) 14 days after seeding, untreated 45.0
[8] = Table 19, Foliage Treatment, spray 50 ppm suspension water (corresponding to 50 g/ha) 14 days after seeding, untreated 98.0
[9] = Table 19, Seed Treatment, 0.5 g/Seed 1 kg (corresponding to 50 g/ha), untreated 45.0
[10] = Table 19, Seed Treatment, 0.5 g/Seed 1 kg (corresponding to 50 g/ha), untreated 98.0
[11] = Table 11 run (different day), Foliage Treatment, spray 50 ppm (50 g/ha)
[12] = Table 11 run (different day), Seed Treatment 0.5 g/Seed 1 kg (50 g/ha)
[13] = Table 13 run (different day), Foliage Treatment, spray 50 ppm (50 g/ha)
[14] = Table 13 run (different day), Seed Treatment 0.5 g/Seed 1 kg (50 g/ha)
[15] = Table 13 run (different day), Foliage Treatment, spray 5 ppm (5 g/ha)
[16] = Table 13 run (different day), Foliage Treatment, spray 10 ppm (10 g/ha)
[17] = Table 13 run (different day), Seed Treatment 0.05 g/Seed 1 kg (5 g/ha)
[18] = Table 13 run (different day), Seed Treatment 0.1 g/Seed 1 kg (10 g/ha)

Row | SMILES | Degree of Disease Occurrence (powdery mildew; [1]) | Disease Leaf Rate (%) (powdery mildew; [1]) | Degree of Disease Occurrence (powdery mildew; [2]) | Disease Leaf Rate (%) (powdery mildew; [2]) | Degree of Disease Occurrence (powdery mildew; [4]) | Disease Leaf Rate (%) (powdery mildew; [4]) | Degree of Disease Occurrence (powdery mildew; [5]) | Disease Leaf Rate (%) (powdery mildew; [5]) | Degree of Disease Occurrence (septoria leaf blotch; [7]) | Disease Leaf Rate (%) (septoria leaf blotch; [8]) | Degree of Disease Occurrence (septoria leaf blotch; [9]) | Disease Leaf Rate (%) (septoria leaf blotch; [10]) | Degree of Disease Occurrence (powdery mildew; [13]) | Disease Leaf Rate (%) (powdery mildew; [13]) | Degree of Disease Occurrence (powdery mildew; [14]) | Disease Leaf Rate (%) (powdery mildew; [14]) | further results
1 | CCNC(=N)c1snc(Cl)c1Cl [Compound (15)] | 66.7 | 100.0 | 80.0 | 93.3 | 40.8 | 70.0 | 31.3 | 60.0 | 39.2 | 93.6 | 10.3 | 41.3 | – | – | – | – | Degree of Disease Occurrence (powdery mildew; [3]): 38.3; Disease Leaf Rate (%) (powdery mildew; [3]): 60.0%; Degree of Disease Occurrence (powdery mildew; [6]): 11.9; Disease Leaf Rate (%) (powdery mildew; [6]): 34.4%; Degree of Disease Occurrence (powdery mildew; Table 14, Foliage Treatment, spray 50 ppm suspension water (corresponding to 50 g/ha) 14 days after seeding, untreated 70.0): 47.9; Disease Leaf Rate (%) (powdery mildew; Table 14, Foliage Treatment, spray 50 ppm suspension water (corresponding to 50 g/ha) 14 days after seeding, untreated 100.0): 100.0%; Degree of Disease Occurrence (powdery mildew; Table 14, Seed Treatment, 0.5 g/Seed 1 kg (corresponding to 50 g/ha), first leaf, 21 days after seeding, untreated 70.0): 13.1; Disease Leaf Rate (%) (powdery mildew; Table 14, Seed Treatment, 0.5 g/Seed 1 kg (corresponding to 50 g/ha), first leaf, 21 days after seeding, untreated 100.0): 37.5%
2 | COC(=O)c1snc(Cl)c1Cl [Compound (7)] | – | – | – | – | – | – | – | – | – | – | – | – | 77.1 | 100.0 | 61.3 | 100.0 | Degree of Disease Occurrence (powdery mildew; [11]): 94.8; Disease Leaf Rate (%) (powdery mildew; [11]): 100%; Degree of Disease Occurrence (powdery mildew; [12]): 78.8; Disease Leaf Rate (%) (powdery mildew; [12]): 100%; Degree of Disease Occurrence (septoria leaf blotch; Table 17, Foliage Treatment, spray 10 ppm suspension water (corresponding to 10 g/ha) 14 days after seeding, untreated 50.0): 41.7; Disease Leaf Rate (%) (septoria leaf blotch; Table 17, Foliage Treatment, spray 10 ppm suspension water (corresponding to 10 g/ha) 14 days after seeding, untreated 100.0): 100.0%; Degree of Disease Occurrence (septoria leaf blotch; Table 17, Foliage Treatment, spray 100 ppm suspension water (corresponding to 100 g/ha) 14 days after seeding, untreated 50.0): 50.0; Disease Leaf Rate (%) (septoria leaf blotch; Table 17, Foliage Treatment, spray 100 ppm suspension water (corresponding to 100 g/ha) 14 days after seeding, untreated 100.0): 93.3%; Degree of Disease Occurrence (septoria leaf blotch; Table 17, Seed Treatment, 0.1 g/Seed 1 kg (corresponding to 10 g/ha), untreated 50.0): 22.5; Disease Leaf Rate (%) (septoria leaf blotch; Table 17, Seed Treatment, 0.1 g/Seed 1 kg (corresponding to 10 g/ha), untreated 100.0): 68.8%; Degree of Disease Occurrence (septoria leaf blotch; Table 17, Seed Treatment, 1 g/Seed 1 kg (corresponding to 100 g/ha), untreated 50.0): 19.4; Disease Leaf Rate (%) (septoria leaf blotch; Table 17, Seed Treatment, 1 g/Seed 1 kg (corresponding to 100 g/ha), untreated 100.0): 77.5%
3 | N/C(=N\O)c1snc(Cl)c1Cl [Compound (17)] | 45.0 | 93.3 | 43.3 | 80.0 | 23.3 | 66.7 | 10.4 | 25.0 | 38.3 | 99.7 | 29.4 | 82.5 | 42.4 | 90.6 | 33.1 | 83.8 | Degree of Disease Occurrence (powdery mildew; [15]): 85.8; Disease Leaf Rate (%) (powdery mildew; [15]): 100.0%; Degree of Disease Occurrence (powdery mildew; [16]): 62.4; Disease Leaf Rate (%) (powdery mildew; [16]): 95.8%; Degree of Disease Occurrence (powdery mildew; [17]): 66.7; Disease Leaf Rate (%) (powdery mildew; [17]): 100.0%; Degree of Disease Occurrence (powdery mildew; [18]): 47.9; Disease Leaf Rate (%) (powdery mildew; [18]): 100.0%; Degree of Disease Occurrence (septoria leaf blotch; Table 19, Foliage Treatment, spray 100 ppm suspension water (corresponding to 100 g/ha) 14 days after seeding, untreated 45.0): 36.7; Disease Leaf Rate (%) (septoria leaf blotch; Table 19, Foliage Treatment, spray 100 ppm suspension water (corresponding to 100 g/ha) 14 days after seeding, untreated 98.0): 94.9%; Degree of Disease Occurrence (septoria leaf blotch; Table 19, Seed Treatment, 1 g/Seed 1 kg (corresponding to 100 g/ha), untreated 45.0): 20.9; Disease Leaf Rate (%) (septoria leaf blotch; Table 19, Seed Treatment, 1 g/Seed 1 kg (corresponding to 100 g/ha), untreated 98.0): 78.8%
